Experiment [1] concerns p44/42 MAPK phosphorylation. In words: Western blotting of LPS induced phosphorylation of p44/42 MAPK in RAW 264.7 cells. The note with it: HMP 25 μM + LPS (0.5 μg/ml), RAW 264.7, 30 min (not at 60 min). Type of experiment: cell-based, mouse. Here is the method: (§1) FIG. 5A and 5B. Effect of HMP on LPS induced MAPKs activation. FIG. 5A, Total protein lysates of RAW 264.7 were prepared after treatment with HMP and/or LPS for indicated times and 40 μg of protein lysates were resolved and probed for phosphorylated (pp44/42 and pp38) and basal p44/42 and p38, using specific monoclonal antibodies as described in material and methods. FIG. 5B, Integrated density of phosphorylated p44/42 (pp44/42) as measured by Scion software. This experiment was repeated 4 times with similar results.
(§2) At indicated time points, cells were rapidly washed with ice-cold PBS and solubilized in cold lysis buffer containing 10 mM Tris-base, 5 mM EDTA, 50 mM NaCl, 1% Triton X-100, 5 mM phenylmethylsulfonyl fluoride (PMSF), 2 mM sodium orthovanadate, 10 μg/ml leupeptin, 25 μg/ml aprotinin, 1 mM sodium pyrophosphate, and 20% glycerol. […]
(§3) Equal amount of protein (40 μg) from each sample was loaded on SDS-polyacrylamide electrophoresis gel (8 and 10% separating gels for iNOS and p42/44^MAPK, respectively) and resolved for 1.5 h at 120 V in buffer containing 95 mM Tris-HCl, 960 mM glycine, and 0.5% SDS. […] Specific bands were detected by enhanced chemiluminescence's detection system (Amersham-Pharmacia biotech, NJ, USA) and the membrane was exposed to X-ray film. […]

Experiment [2] deals with LPS induced NO production from mouse macrophage cells (RAW 264.7). In words: Nitric oxide measurement (nitrite, Griess reagent) in LPS-treated RAW 264.7 cells. The note with it: RAW 264.7, 24 hrs. Type of experiment: cell-based. Here is the method: The mouse macrophage cells (RAW 264.7) were cultured in DMEM supplemented with 15% fetal bovine serum (FBS) and antibiotic and antimycotic mixture. The cell suspension of 50,000 cells/well was cultured in flat bottom microtitre plate in quadruplicate for 12 hrs. Thereafter, 100 μl of media was replaced with fresh medium containing either LPS (0.5 μg/ml) alone or LPS with various concentrations of HMP and further cultured for 24 hrs. The culture supernatant was collected at the end of culture for nitrite assay, which was used as a measure of NO production. Culture supernatant (100 μl) was mixed with equal volume of Griess reagent (SIGMA, MO, USA) and the absorbance was measured at 570 nm. The concentration of nitrite (μM) was calculated from standard curve drawn with known concentration of sodium nitrite dissolved in DMEM. The results are presented as mean ±SD of 4 replicates of one representative experiment and this experiment was repeated 5 times. For the NO assay, RAW 264.7 cells were treated with LPS (0.5 μg/ml) and/or various concentrations of HMP for 24 hrs and amount of nitrite in supernatant from each treatment group was measured using Griess reagent. Each data point represents mean+standard deviation (SD) of 5 replicates of one representative experiment of total 6 experiments.

The test system of experiment [3] is TNF-α production from human PBMCs. In words: TNF-α ELISA in supernatants of LPS-treated human PBMCs. The experiment is classed as cell-based. The note with it: 18 hrs. How it is done:
The PBMCs were separated from peripheral blood of normal healthy human volunteers. […] Supernatant was harvested after 18 hrs and stored at −70° C. until tested. The quantity of IL-1β and TNF-α present in supernatants was estimated by ELISA (R&D systems, MN, USA) following manufacturer's instruction. A standard curve was obtained by plotting known concentrations of recombinant human IL-1β and TNF-α vs absorbance at 450 nm.
Each data point represents mean+standard deviation (SD) of 3 replicates.

The subject of the next experiment is p38 MAPK phosphorylation. In words: Western blotting of LPS induced phosphorylation of p38 MAPK in RAW 264.7 cells. Type of experiment: cell-based, mouse. The note with it: HMP 25 μM + LPS (0.5 μg/ml), RAW 264.7, 30 min and 60 min. Here is the method: as §1, §2, §3
(A western blot detects proteins with antibodies after separation by electrophoresis.)

Bounds are passed on as bounds.

In the case of `COc1cc(CC/C=C/C(=O)CCc2ccccc2)ccc1O` [AO-4, 7-(4″-hydroxy-3″-methoxyphenyl)-1-phenyl-hept-4-en-3-one], the “LPS-induced phosphorylation of p44/42 MAPK (in words)” value in experiment [1] is given as “markedly inhibited”. The “Nitrite” value was determined as 14.54 ± 2.5 µM in experiment [2] (HMP 6.25 μM + LPS (0.5 μg/ml)); 3.66 ± 1.08 µM in experiment [2] (HMP 6.25 μM alone); 13.75 ± 2.65 µM in experiment [2] (HMP 12.5 μM + LPS (0.5 μg/ml)); 3.88 ± 1.14 µM in experiment [2] (HMP 12.5 μM alone); 9.95 ± 1.41 µM in experiment [2] (HMP 25 μM + LPS (0.5 μg/ml)); 3.86 ± 0.97 µM in experiment [2] (HMP 25 μM alone). Further, the “LPS induced production of nitric oxide (in words)” value in experiment [2] (HMP 6.25-25 μM + LPS (0.5 μg/ml)) is recorded as “significantly inhibited by HMP in a dose dependent manner”. In addition, the “NO production, HMP alone (in words)” value in experiment [2] (HMP alone) is “no effect on NO production”. The “TNF-α” value was 342.24 ± 11.50 pg/mL in experiment [3] (HMP 6.25 μM + LPS (10 ng/ml)); <15.62 pg/mL in experiment [3] (HMP 6.25 μM alone, detection limit 15.62 pg/ml); 298.49 ± 5.47 pg/mL in experiment [3] (HMP 12.5 μM + LPS (10 ng/ml)); <15.62 pg/mL in experiment [3] (HMP 12.5 μM alone, detection limit 15.62 pg/ml); 165.38 ± 8.48 pg/mL in experiment [3] (HMP 25 μM + LPS (10 ng/ml)); <15.62 pg/mL in experiment [3] (HMP 25 μM alone, detection limit 15.62 pg/ml). For the same molecule, the “inhibition of LPS induced TNF-α (in words)” value in experiment [3] (HMP 6.25-25 μM + LPS) is “only at 25 μM concentration”. In the experiment with p38 MAPK phosphorylation, the “LPS induced phosphorylation of p38 (in words)” value was “no effect”.

The values are drawn from patent US20050215635A1, “Diarylheptanoid compounds and uses thereof” (priority 2004, published 2005).
